From patent publication US20260248763A1 (BIO GENUINE (SHANGHAI) BIOTECH CO., LTD, priority 2023, published 2026) come the findings set out here.

Each structure is given as a SMILES string. pIC50: −log10 of the molar value.

For this assay, the target named is T1, OTR (Homo sapiens, UniProt P30559).
T1 construct: expressed in transfected cells; host or cells: OTR/HEK293 stably transfected cell line
T1 sequence (P30559 1-389): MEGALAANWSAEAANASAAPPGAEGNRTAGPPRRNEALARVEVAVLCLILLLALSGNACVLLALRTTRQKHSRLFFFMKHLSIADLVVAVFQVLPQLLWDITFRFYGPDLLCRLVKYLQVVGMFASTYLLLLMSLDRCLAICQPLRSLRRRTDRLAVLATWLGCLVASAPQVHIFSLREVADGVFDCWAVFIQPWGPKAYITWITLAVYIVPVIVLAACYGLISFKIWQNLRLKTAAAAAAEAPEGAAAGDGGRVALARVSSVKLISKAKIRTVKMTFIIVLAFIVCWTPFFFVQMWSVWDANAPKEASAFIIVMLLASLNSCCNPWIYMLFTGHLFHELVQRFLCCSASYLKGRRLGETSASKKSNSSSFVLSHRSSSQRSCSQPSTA
Put plainly: Ca2+ mobilization in cells stably expressing OTR (FLIPR, antagonist mode). It is filed as cell-based. To be noted: OTR/HEK293 stably transfected cell line. The source says: Test Example 1. Determination of the Effect of the Compound of the Present Disclosure on Ca^2+ Mobilization in Cells Stably Expressing OTR
To measure the antagonistic effect of the compound of the present disclosure on OTR activity expressed in the OTR/HEK293 stably transfected cell line.
• DMEM medium (Invitrogen, 11965) • F12 medium (Invitrogen, 11765) • Fetal bovine serum (Excell, FSP500) • Geneticin (Invitrogen, 10131) • Penicillin/Streptomycin (Invitrogen, SV30010) • Fluo-4 Direct kit (Invitrogen, F10471) • 384-well cell plate (Greiner, 781090) • 384-well compound plate (Greiner, 781280)
• FLIPR instrument (Molecular Device) • EHCO instrument (Labcyte) • Cell counter (Beckman, Vi-cell XR)
The cultured cells were washed twice with pre-heated DPBS and digested with appropriate amount of trypsin at 37° C. for 1 minute, and then appropriate amount of culture medium was added to terminate digestion. The cells were centrifuged at 1000 rpm for 5 minutes. The supernatant was gently discarded without disturbing the cell pellet at the bottom. The cells were resuspended in culture medium and 1 mL was taken out for cell counting and viability assessment using Vi-CELL™. The cells were diluted to 1×10^6 cells/mL (20,000 cells/20 μL) with culture medium, seeded into a 384-well cell plate and incubated at 37° C. with 5% CO2 for 16-20 h.
Formulation of 250 mM Probenecid solution: according to the kit instructions, 1 mL of FLIPR buffer salt solution was added to 77 mg of probenecid, prepared fresh just before use. Formulation of Fluo-4 Direct™ (2×, 8 μM) loading buffer: according to the kit instructions, the required amount of Fluo-4 Direct™ was taken out and thawed in advance, 10 mL of FLIPR buffer salt solution and 0.2 mL of 250 mM Probenecid solution were added to each tube, and the mixture was vortexed in the dark for >5 minutes, prepared fresh just before use.
Preparation of agonist reference compound plate: the agonist was diluted 3-fold in 10 points using ECHO, and 750 nL was transferred to the corresponding compound plate using ECHO.
Preparation of reference and test compound plates: the test compound was diluted 3-fold in 10 points with ECHO, and 900 nL was transferred to the corresponding compound plate; the reference compound was diluted 3-fold in 10 points with assay buffer salt solution, and 30 μL was transferred to the compound plate.
30 μL of assay buffer salt solution was added to the corresponding compound plate, and the mixture was centrifuged at 1000 rpm for 1 minute.
The cell plate prepared the day before was taken out of the incubator, and 20 μL of 2×Fluo-4 Direct™ buffer was added to each well, with a total volume of 40 μL.
The plate was incubated in an incubator at 37° C. with 5% CO2 for 50 minutes, and then placed at room temperature for 10 minutes.
The compound plate, cell plate, and pipette tips were placed into the instrument.
For the agonist reference compound plate: the FLIPR instrument software was run, 10 μL of the pre-determined concentration of agonist reference compound was added to the cell plate following the preset protocol, and the fluorescence signal was read. After reading, the data were exported to calculate the EC80 for each cell line, and the agonist at 6×EC80 concentration was prepared.
For the compound plate: the FLIPR instrument software was run, 10 μL of the pre-determined concentration of test compound and the reference compound were added to the cell plate following the preset protocol, and the fluorescence signal was read. 10 μL of the reference compound agonist at 6×EC80 concentration was added to the cell plate, and the fluorescence signal was read. For antagonist detection of the compound, the data were exported using the “Max-Min” and “Read 1 to Maximum allowed” methods in the software, and the data were fitted using Prism.
Regarding `CO/N=C1/C[C@@H](CO)N(C(=O)c2ccc(-c3cccc(C#N)c3C)c(C3(O)COC3)c2)C1` [Example A0183, 3-(4-[(2S, 4Z)-2-(Hydroxymethyl)-4-(methoxyimino)pyrrolidine-1-carbonyl]-2-(3-hydroxyoxetan-3-yl)phenyl)-2-methylbenzonitrile], the pIC50 is 5.83.
The value for `CO/N=C1/C[C@@H](CO)N(C(=O)c2ccc(-c3cccc(C#N)c3C)c(OCC3CC3)n2)C1` [Example A0188, (S, Z)-3-(2-(Cyclopropylmethoxy)-6-(2-(hydroxymethyl)-4-(methoxyimino)pyrrolidine-1-carbonyl)pyridin-3-yl)-2-methylbenzonitrile] was 7.36; that for `CO/N=C1/C[C@@H](CO)N(C(=O)c2ccc(-c3cccc(C#N)c3C)c3ncnn23)C1` [Example A0190, (S, Z)-3-(5-(2-(Hydroxymethyl)-4-(methoxyimino)pyrrolidine-1-carbonyl)-[1,2,4]triazolo[1,5-a]pyridin-8-yl)-2-methylbenzonitrile] was 5.82; that for `COCCNc1nc(C(=O)N2C/C(=N\OC)C[C@H]2CO)ccc1-c1cccc(C#N)c1C` [Example A0197, (S, Z)-3-(6-(2-(Hydroxymethyl)-4-(methoxyimino)pyrrolidine-1-carbonyl)-2-((2-methoxyethyl)amino)pyridin-3-yl)-2-methylbenzonitrile] was 6.40.
`CO/N=C1/C[C@@H](CO)N(C(=O)c2ccc(-c3cccc(C#N)c3C)c(N3CCOCC3)n2)C1` [Example A0198, (S, Z)-3-(6-(2-(Hydroxymethyl)-4-(methoxyimino)pyrrolidine-1-carbonyl)-2-morpholinopyridin-3-yl)-2-methylbenzonitrile] gave a pIC50 of 6.01. Against the preceding compound, the pIC50 is 0.39 log units lower.
For the compound `CO/N=C1/C[C@@H](CO)N(C(=O)c2ccc(-c3cccc(C#N)c3C(F)F)cc2)C1` [Example A0204, 2-(Difluoromethyl)-3-(4-[(2S, 4Z)-2-(hydroxymethyl)-4-(methoxyimino)pyrrolidine-1-carbonyl]phenyl)benzonitrile], the pIC50 was 6.81.
The figure for `CO/N=C1/C[C@@H](CO)N(C(=O)c2ccc(-c3cccc(C#N)c3C)s2)C1` [Example A0212, 3-(5-[(2S, 4Z)-2-(Hydroxymethyl)-4-(methoxyimino)pyrrolidine-1-carbonyl]thien-2-yl)-2-methylbenzonitrile] is 6.42.
Consider `CO/N=C1/C[C@@H](CO)N(C(=O)c2cc(OC)c(-c3cccc(C#N)c3C)cn2)C1` [Example A0216, 3-(6-[(2S, 4Z)-2-(Hydroxymethyl)-4-(methoxyimino)pyrrolidine-1-carbonyl]-4-methoxypyridin-3-yl)-2-methylbenzonitrile], for which the pIC50 is 6.70.
The figure for `CO/N=C1\C[C@@H](CO)N(C(=O)c2ccc(-c3cccc(C#N)c3C)c(OC)n2)C1` [Example A0222, 3-(6-[(2S, 4E)-2-(Hydroxymethyl)-4-(methoxyimino)pyrrolidine-1-carbonyl]-2-methoxypyridin-3-yl)-2-methylbenzonitrile] is 6.95; for `CO/N=C1/CC[C@@H](CO)N(C(=O)c2ccc(-c3cccc(C#N)c3C)cc2)C1` [Example A0225, (S, Z)-4′-(2-(Hydroxymethyl)-5-(methoxyimino)piperidine-1-carbonyl)-2-methyl-[1,1′-biphenyl]-3-carbonitrile] it is 6.32.
The figure for `CO/N=C1\CCN(C(=O)c2ccc(-c3cccc(C#N)c3C)cc2)[C@H](CO)C1` [Example A0226, (S,E)-4′-(2-(Hydroxymethyl)-4-(methoxyimino)piperidine-1-carbonyl)-2-methyl-[1,1′-biphenyl]-3-carbonitrile] is 5.98; for `CNC(=O)[C@@H]1C/C(=N/OC)CN1C(=O)c1ccc(-c2cccc(C#N)c2C)cc1` [Example A0228, (S, Z)-1-(3′-Cyano-2′-methyl-[1,1′-biphenyl]-4-carbonyl)-4-(methoxyimino)-N-methylpyrrolidine-2-carboxamide] it is 6.36.
The figure for `CNC(=O)[C@@H]1C/C(=N\OC)CN1C(=O)c1ccc(-c2cccc(C#N)c2C)cc1` [Example A0232, (S, E)-1-(3′-Cyano-2′-methyl-[1,1′-biphenyl]-4-carbonyl)-4-(methoxyimino)-N-methylpyrrolidine-2-carboxamide] is 6.40.
For the compound `CO/N=C1\CC[C@@H](CO)N(C(=O)c2ccc(-c3cccc(C#N)c3C)cc2)C1` [Example A0234, (S, E)-4′-(2-(Hydroxymethyl)-5-(methoxyimino)piperidine-1-carbonyl)-2-methyl-[1,1′-biphenyl]-3-carbonitrile], the pIC50 is 6.62.
The value for `CO/N=C1\C[C@@H](CO)N(C(=O)c2ccc(-c3cccc(C#N)c3C)cc2C)C1` [Example A0244, 3-(4-[(2S,4E)-2-(Hydroxymethyl)-4-(methoxyimino)pyrrolidine-1-carbonyl]-3-methylphenyl)-2-methylbenzonitrile] was 7.37.
The figure for `CO/N=C1\C[C@@H](CO)N(C(=O)c2ccc(-c3cccc(C#N)c3C)cc2OC)C1` [Example A0245] is 7.24; for `CO/N=C1\C[C@@H](CO)N(C(=O)c2ccc(-c3cccc(C#N)c3C)c(OC)c2)C1` [Example A0248, (S,E)-4′-(2-(Hydroxymethyl)-4-(methoxyimino)pyrrolidine-1-carbonyl)-2′-methoxy-2-methyl-[1,1′-biphenyl]-3-carbonitrile] it is 7.24.
In the case of `CO/N=C1/CCN(C(=O)c2ccc(-c3cccc(C#N)c3C)cc2)[C@H](CO)C1` [Example A0249, (S,Z)-4′-(2-(Hydroxymethyl)-4-(methoxyimino)piperidine-1-carbonyl)-2-methyl-[1,1′-biphenyl]-3-carbonitrile], the pIC50 was 5.51.
The compound `CO/N=C1/C[C@@H](CO)N(C(=O)c2cnc(-c3cccc(C#N)c3C)cn2)C1` [Example A0251, (S,Z)-3-(5-(2-(Hydroxymethyl)-4-(methoxyimino)pyrrolidine-1-carbonyl)pyrazin-2-yl)-2-methylbenzonitrile] gave a negative logarithm of the IC50 (pIC50) of 6.44.
`CO/N=C1\C[C@@H](CNC(C)=O)N(C(=O)c2ccc(-c3ccccc3C)cc2)C1` [Example C0003, (S, E)-N-((4-(Methoxyimino)-1-(2′-methyl-[1,1′-biphenyl]-4-carbonyl)pyrrolidin-2-yl)methyl)acetamide]: the pIC50 was 5.63.
The value for `CO/N=C1\C[C@@H](CNC(=O)OC)N(C(=O)c2ccc(-c3ccccc3C)cc2)C1` [Example C0004, Methyl (S, E)-((4-(methoxyimino)-1-(2′-methyl-[1,1′-biphenyl]-4-carbonyl)pyrrolidin-2-yl)methyl)carbamate] was 6.20; that for `CO/N=C1\C[C@@H](CNC(=O)CO)N(C(=O)c2ccc(-c3ccccc3C)cc2)C1` [Example C0005, (S, E)-2-Hydroxy-N-((4-(methoxyimino)-1-(2′-methyl-[1,1′-biphenyl]-4-carbonyl)pyrrolidin-2-yl)methyl)acetamide] was 5.75; that for `CO/N=C1/C[C@@H](CNC(=O)OC)N(C(=O)c2ccc(-c3ccccc3C)cc2)C1` [Example C0007, Methyl (S, Z)-((4-(methoxyimino)-1-(2′-methyl-[1,1′-biphenyl]-4-carbonyl)pyrrolidin-2-yl)methyl)carbamate] was 6.27.
